Test results published in patent publication US11667636B2, “Modulators of Mas-related G-protein receptor X2 and related products and methods” (Escient Pharmaceuticals, Inc., priority 2020, dated 2023).

biological target: T1, human MRGPRX2 (Homo sapiens, UniProt Q96LB1); assay: MRGPRX2 Activity: IP-One HTRF antagonist assay in CHO cells stably expressing human MRGPRX2, versus Cortistatin-14; assay type: cell-based; details: versus 0.3 uM Cortistatin-14 agonist, IP-1 HTRF, read-out: MRGPR2 Antagonist Activity
T1 construct: expressed in transfected cells
T1 sequence (Q96LB1 1-330): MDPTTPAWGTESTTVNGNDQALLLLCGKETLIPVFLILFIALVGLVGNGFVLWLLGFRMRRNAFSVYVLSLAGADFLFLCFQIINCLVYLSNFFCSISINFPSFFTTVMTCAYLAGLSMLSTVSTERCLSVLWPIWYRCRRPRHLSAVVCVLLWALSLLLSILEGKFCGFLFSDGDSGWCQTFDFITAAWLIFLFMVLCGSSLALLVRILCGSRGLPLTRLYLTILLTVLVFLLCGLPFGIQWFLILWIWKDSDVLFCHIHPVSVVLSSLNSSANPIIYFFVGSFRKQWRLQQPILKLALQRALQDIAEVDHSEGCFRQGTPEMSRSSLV
Experimental: CHO cells stably transfected to express human MRGPRX2 were maintained in an incubator at 37° C. with 5% CO2 and grown in F12 (HAM) media with 10% fetal bovine serum (FBS), 1% Glutamax, 1% penicillin/streptomycin, 800 μg/mL Geneticin (G418), and 300 μg/mL Hygromycin B. Cells were plated in a 384-well assay plate at 20,000 cells per well in 12 μL of Opti-MEM and kept in an incubator overnight. On the day of the assay, compounds solubilized at 10 mM in DMSO were added as a 10-point curve (30 uM final top concentration with 1:3 serial dilutions) using a Tecan D300E digital dispenser. Agonists were diluted in assay buffer (final concentrations of 5.7 mM Tris-HCl, 43 mM NaCl, 50 mM LiCl, pH=8) and 2 μL of the agonist Cortistatin-14 (CPC Scientific, catalog CORT-002) are added to each well. Final concentrations of agonists were 0.3 μM Cortistatin-14. Final concentrations of DMSO were kept consistent across the plate. Plates were incubated in the dark for 1 hr at 37° C. and then for 1 hr at room temperature. IP-1 standards and HTRF detection reagents were added according to the IP-One-Gq Kit purchased from Cisbio (part number 62IPAPEJ) and incubated in the dark for 1 hr at room temperature. The plate was read on a Molecular Devices SpectraMax iD5 plate reader. The HTRF ratio was calculated from the raw data and graphed using GraphPad Prism to calculate an IC50 value for each compound.
The activity ranges are denoted as follows: “+++++” denotes antagonist activity <50 nM; “++++” denotes antagonist activity between 51 and 100 nM; “+++” denotes activity between 101 and 500 nM; “++” denotes activity between 501 and 1000 nM; and “+” denotes activity >1000 nM

IC50 [µM]	Compound
< 0.05	O=C(N[C@H]1CC[C@@H](Nc2cccc3nc(C(F)(F)F)cn23)CC1)c1ccnc2cn[nH]c12 [2-126]
0.101 to 0.5	CNc1ccccc1C(=O)N[C@H]1CC[C@@H](Nc2cccc3nc(C#N)cn23)CC1 [2-262]
0.101 to 0.5	O=C(N[C@H]1CC[C@@H](Nc2cccc3nc(C(F)(F)F)cn23)CC1)c1cnc[nH]1 [2-11]
< 0.05	Cc1cc(C(=O)N[C@H]2CC[C@@H](Nc3cccc4nc(C(F)F)cn34)CC2)cn1C(F)F [2-221]
0.051 to 0.1	COc1ccc(C(=O)N[C@H]2CC[C@@H](Nc3cccc4nc(C(F)(F)F)sc34)CC2)cc1 [1-22]
0.051 to 0.1	N#Cc1cc2c(N[C@H]3CC[C@@H](NC(=O)c4ccc(F)cc4)CC3)cccc2s1 [1-20]
< 0.05	O=C(N[C@H]1CC[C@@H](Nc2cccc3nc(C(F)F)cn23)CC1)c1ccnc(NCC(F)F)c1 [2-150]
< 0.05	Cc1n[nH]c2c(C(=O)N[C@H]3CC[C@@H](Nc4cccc5nc(C(F)(F)F)cn45)CC3)cccc12 [2-183]
0.501 to 1	COc1ccc(C(=O)N[C@@H]2CCC[C@H](Nc3cccc4oc(C(F)(F)F)nc34)C2)cc1 [Example 4, 4-methoxy-N-[(1R,3S)-3-[[2-(trifluoromethyl)-1,3-benzoxazol-4-yl]amino]cyclohexyl]benzamide]
< 0.05	Cn1cc(C(=O)N[C@H]2CC[C@@H](Nc3cccc4nc(C(F)(F)F)cn34)CC2)c2c(Cl)cccc21 [2-291]
0.101 to 0.5	O=C(N[C@H]1CC[C@@H](Nc2cccc3nc(C(F)F)cn23)CC1)c1cncs1 [2-147]
0.101 to 0.5	COc1ccc(C(=O)N[C@H]2CC[C@@H](Nc3cc(C)cc4nc(C(F)(F)F)cn34)CC2)cc1 [1-23]
0.101 to 0.5	O=C(N[C@H]1CC[C@@H](Nc2cccc3nc(C(F)(F)F)cn23)CC1)c1n[nH]c2ccccc12 [2-9]
< 0.05	O=C(N[C@H]1CC[C@@H](Nc2cccc3nc(C(F)(F)F)cn23)CC1)c1cc2cc(F)cnc2[nH]1 [2-120]
< 0.05	O=C(N[C@H]1CC[C@@H](Nc2cccc3nc(C(F)(F)F)cn23)CC1)c1ccc(OCCF)cc1 [2-230]
0.101 to 0.5	CC(C#N)c1cccc(C(=O)N[C@H]2CC[C@@H](Nc3cccc4sc(C(F)(F)F)cc34)CC2)c1 (stereo partly shown) [2-5]
< 0.05	CN(CC(F)F)c1ccc(C(=O)N[C@H]2CC[C@@H](Nc3cccc4nc(C(F)F)cn34)CC2)cc1 [2-274]
< 0.05	NS(=O)(=O)c1ccc(C(=O)N[C@H]2CC[C@@H](Nc3cccc4nc(C(F)(F)F)cn34)CC2)cc1 [2-204]
0.101 to 0.5	N#Cc1cccc(C(=O)N[C@H]2CC[C@@H](Nc3cccc4sc(C(F)(F)F)cc34)CC2)c1 [Example 5, 3-cyano-N-((1 S,4S)-4-((2-(trifluoromethyl)benzo[b]thiophen-4-yl)amino)cyclohexyl)benzamide]
0.101 to 0.5	Cc1n[nH]c2c(C(=O)N[C@H]3CC[C@@H](Nc4cccc5nc(C(F)(F)F)cn45)CC3)ccnc12 [2-247]
< 0.05	Cc1cc2c(C(=O)N[C@H]3CC[C@@H](Nc4cccc5nc(C(F)(F)F)cn45)CC3)cccc2n1C [2-198]
0.101 to 0.5	O=C(N[C@H]1CC[C@@H](Nc2cccc3nc(C(F)(F)F)cn23)CC1)c1ccncc1 [2-162]
< 0.05	O=C(N[C@H]1CC[C@@H](Nc2cccc3nc(C(F)(F)F)cn23)CC1)c1ccc2nccn2c1 [2-165]
< 0.05	O=C(N[C@H]1CC[C@@H](Nc2cccc3nc(C(F)(F)F)cn23)CC1)c1cn(CC(F)F)nc1C(F)F [Example 8, 1-(2,2-difluoroethyl)-3-(difluoromethyl)-N-[4-[[2-(trifluoromethyl)imidazo[1,2-a]pyridin-5-yl]amino]cyclohexyl]pyrazole-4-carboxamide]
0.051 to 0.1	COc1ccc(C(=O)N[C@@H]2CCC[C@H](Nc3cc(F)cc4nc(C(F)(F)F)cn34)C2)cc1 [1-31]

IC50 [µM]	Compound
0.101 to 0.5	O=C(N[C@H]1CC[C@@H](Nc2cccc3nc(C(F)(F)F)cn23)CC1)c1cncc2cn[nH]c12 [2-241]
0.101 to 0.5	Cn1cc(C(=O)N[C@H]2CC[C@@H](Nc3cccc4nc(C(F)(F)F)cn34)CC2)nn1 [2-233]
0.101 to 0.5	O=C(N[C@H]1CC[C@@H](Nc2cccc3nc(C(F)F)cn23)CC1)c1cccc2[nH]c(C(F)F)nc12 [2-151]
0.051 to 0.1	Cn1ncc(C(=O)N[C@H]2CC[C@@H](Nc3cccc4nc(C(F)F)cn34)CC2)c1NCC(F)F [2-270]
< 0.05	Nc1nn(CC(F)(F)F)cc1C(=O)N[C@H]1CC[C@@H](Nc2cccc3nc(C(F)(F)F)cn23)CC1 [Example 7, 3-amino-1-(2,2,2-trifluoroethyl)-N-[4-[[2-(trifluoromethyl)imidazo[1,2-a]pyridin-5-yl]amino]cyclohexyl]pyrazole-4-carboxamide]
< 0.05	CC(C)n1cc(C(=O)N[C@H]2CC[C@@H](Nc3cccc4nc(C(F)(F)F)cn34)CC2)c(Cl)n1 [2-294]
< 0.05	CC(C)(F)Cn1cc(C(=O)N[C@H]2CC[C@@H](Nc3cccc4nc(C(F)F)cn34)CC2)c(Cl)n1 [2-257]
0.101 to 0.5	COc1cccc(C(=O)N[C@H]2CC[C@@H](Nc3cccc4nc(C#N)cn34)CC2)c1 [2-260]
< 0.05	O=C(N[C@H]1CC[C@@H](Nc2cccc3nc(C(F)F)cn23)CC1)c1ccc(OCCF)cc1 [2-218]
< 0.05	O=C(N[C@H]1CC[C@@H](Nc2cccc3nc(C(F)(F)F)cn23)CC1)c1ccn2cncc2c1 [2-163]
0.051 to 0.1	O=C(N[C@H]1CC[C@@H](Nc2cccc3sc(C(F)F)cc23)CC1)c1ccc(F)cc1 [1-13]
< 0.05	CN(CC(F)F)c1ccc(C(=O)N[C@H]2CC[C@@H](Nc3cccc4nc(C(F)(F)F)cn34)CC2)cc1 [2-181]
0.051 to 0.1	Cn1cc(C(=O)N[C@H]2CC[C@@H](Nc3cccc4nc(C(F)(F)F)cn34)CC2)c(C2CC2)n1 [2-191]
0.051 to 0.1	COc1ccc(C(=O)N[C@H]2CC[C@@H](Nc3cccc4nc(C(F)F)cn34)CC2)c(Cl)c1 [2-148]
< 0.05	Cn1cc(C(=O)NC2CCC(Nc3cccc4nc(C(F)(F)F)cn34)CC2)c2ccccc21 (stereo not shown) [2-289]
< 0.05	O=C(N[C@H]1CC[C@@H](Nc2cccc3nc(C(F)(F)F)cn23)CC1)c1cn(CC(F)(F)F)nc1Cl [Example 12, 3-chloro-1-(2,2,2-trifluoroethyl)-N-((1s,4s)-4-((2-(trifluoromethyl)imidazo[1,2-a]pyridin-5-yl)amino)cyclohexyl)-1H-pyrazole-4-carboxamide]
< 0.05	CCn1cc(C(=O)N[C@H]2CC[C@@H](Nc3cccc4nc(C(F)(F)F)cn34)CC2)c(Cl)n1 [2-293]
< 0.05	O=C(N[C@H]1CC[C@@H](Nc2cccc3nc(C(F)(F)F)cn23)CC1)c1ccc(NCC(F)F)cc1 [2-180]
0.101 to 0.5	Cc1c(C(=O)N[C@H]2CC[C@@H](Nc3cccc4nc(C(F)(F)F)cn34)CC2)c2ccccc2n1C [2-227]
< 0.05	O=C(N[C@H]1CC[C@@H](Nc2cccc3nc(C(F)F)cn23)CC1)c1cccc2cn[nH]c12 [2-193]
0.051 to 0.1	O=C(N[C@H]1CC[C@@H](Nc2cccc3nc(C(F)F)cn23)CC1)c1cn(C(F)(F)F)nc1Cl [2-295]
< 0.05	O=C(N[C@H]1CC[C@@H](Nc2cccc3nc(C(F)(F)F)cn23)CC1)c1ccc(F)cc1 [2-157]
< 0.05	Cn1cc(C(=O)N[C@H]2CC[C@@H](Nc3cccc4nc(C(F)F)cn34)CC2)c(NCC(F)F)n1 [2-288]
< 0.05	O=C(N[C@H]1CC[C@@H](Nc2cccc3nc(C(F)(F)F)cn23)CC1)c1c[nH]nc1Cl [2-176]
